Experimental data reported in patent US20050044578A1, “Rat highly sensitive to carcinogen” (priority 2001, published 2005).

Columns and labels:
wild-type rats = experiment: Sensitivity to hepatocarcinogenesis by diethyl nitrosamine, GST-P-positive foci in liver, wild-type rats; assay type: in vivo, rat; settings: eight-week-old male, 200 mg/kg intraperitoneally, 20 weeks after the administration, per 1 cm^2
Description: (§1) The livers taken from each of the above-mentioned rats were fixed with acetone and embedded in paraffine, sliced, and then GST-P, a precancerous hepatic lesion marker, was immunostained for visualization (FIG. 4, left). Further, the number and the area of positive foci per unit area in the GST-P-positive foci were measured with an image analyzer (IPAP, Olympus) (FIG. 4, right).

transgenic rats = experiment: Sensitivity to hepatocarcinogenesis by diethyl nitrosamine, GST-P-positive foci in liver, transgenic rats (mutant connexin 32); assay type: in vivo, rat; settings: 200 mg/kg intraperitoneally
Description: as §1

[1] = transgenic rats, eight-week-old male, 20 weeks after the administration, liver, per 1 cm^2

## CCN(CC)N=O [diethyl nitrosamine]
wild-type rats
  area of the GST-P-positive foci per unit area (1 cm^2): 0.2 mm^2
  number of the GST-P-positive foci per unit area (1 cm^2): 11.1
Transgenic rats; transgenic rats in comparison to wild-type rats, 20 weeks
  sensitivity of the transgenic rats to the hepatocarcinogen: extremely high sensitivity
Transgenic rats; [1]
  area of the GST-P-positive foci per unit area (1 cm^2): 3.32 mm^2
  number of the GST-P-positive foci per unit area (1 cm^2): 79.8
